Laboratory results from patent US10168342B2, “Lipid probes and uses thereof” (THE SCRIPPS RESEARCH INSTITUTE, priority 2015, dated 2019).
Where two headings read alike, the source gives them in different places.

Key:
[1] = biological target: T1, AEA-DA lipid probe targets in Neuro2a cells (Mus musculus, UniProt Q8R127)
T1 sequence (Q8R127 1-429): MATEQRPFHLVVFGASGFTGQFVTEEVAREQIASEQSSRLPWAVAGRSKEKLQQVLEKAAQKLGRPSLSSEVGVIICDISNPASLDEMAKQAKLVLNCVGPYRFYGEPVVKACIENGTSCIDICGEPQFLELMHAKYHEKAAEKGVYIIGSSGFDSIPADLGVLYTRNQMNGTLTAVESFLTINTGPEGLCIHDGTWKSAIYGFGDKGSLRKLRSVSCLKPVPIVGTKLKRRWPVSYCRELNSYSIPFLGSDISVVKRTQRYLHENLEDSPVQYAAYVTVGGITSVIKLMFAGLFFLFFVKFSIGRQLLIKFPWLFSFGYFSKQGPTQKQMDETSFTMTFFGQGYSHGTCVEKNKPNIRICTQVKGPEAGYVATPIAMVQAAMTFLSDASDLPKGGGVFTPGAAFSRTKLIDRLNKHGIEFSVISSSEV

[2] = biological target: AEA-DA lipid probe targets in Neuro2a cells (Mus musculus, UniProt Q9EQK7)
Sequence of AEA-DA lipid probe targets in Neuro2a cells (Mus musculus, UniProt Q9EQK7) (Q9EQK7 whole entry): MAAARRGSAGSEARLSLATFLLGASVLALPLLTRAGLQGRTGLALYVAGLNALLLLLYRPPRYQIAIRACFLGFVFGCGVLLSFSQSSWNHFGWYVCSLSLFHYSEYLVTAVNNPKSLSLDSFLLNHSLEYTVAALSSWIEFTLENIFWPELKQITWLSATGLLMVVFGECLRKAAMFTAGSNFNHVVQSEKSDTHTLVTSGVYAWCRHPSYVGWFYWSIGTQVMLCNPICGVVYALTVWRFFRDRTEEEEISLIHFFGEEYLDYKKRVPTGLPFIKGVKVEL

[3] = biological target: T2, AEA-DA lipid probe targets in Neuro2a cells (Mus musculus, UniProt P15626)
T2 sequence (P15626 1-218): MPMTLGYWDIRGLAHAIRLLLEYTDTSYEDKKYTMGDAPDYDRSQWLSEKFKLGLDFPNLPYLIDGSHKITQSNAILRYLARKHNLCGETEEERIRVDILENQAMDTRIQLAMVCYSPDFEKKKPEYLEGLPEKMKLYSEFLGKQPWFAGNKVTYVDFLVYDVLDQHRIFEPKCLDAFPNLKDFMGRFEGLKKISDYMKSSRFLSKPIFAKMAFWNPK

[4] = biological target: AEA-DA lipid probe targets in Neuro2a cells (Mus musculus, UniProt Q6PA06)
Sequence of AEA-DA lipid probe targets in Neuro2a cells (Mus musculus, UniProt Q6PA06) (Q6PA06 whole entry): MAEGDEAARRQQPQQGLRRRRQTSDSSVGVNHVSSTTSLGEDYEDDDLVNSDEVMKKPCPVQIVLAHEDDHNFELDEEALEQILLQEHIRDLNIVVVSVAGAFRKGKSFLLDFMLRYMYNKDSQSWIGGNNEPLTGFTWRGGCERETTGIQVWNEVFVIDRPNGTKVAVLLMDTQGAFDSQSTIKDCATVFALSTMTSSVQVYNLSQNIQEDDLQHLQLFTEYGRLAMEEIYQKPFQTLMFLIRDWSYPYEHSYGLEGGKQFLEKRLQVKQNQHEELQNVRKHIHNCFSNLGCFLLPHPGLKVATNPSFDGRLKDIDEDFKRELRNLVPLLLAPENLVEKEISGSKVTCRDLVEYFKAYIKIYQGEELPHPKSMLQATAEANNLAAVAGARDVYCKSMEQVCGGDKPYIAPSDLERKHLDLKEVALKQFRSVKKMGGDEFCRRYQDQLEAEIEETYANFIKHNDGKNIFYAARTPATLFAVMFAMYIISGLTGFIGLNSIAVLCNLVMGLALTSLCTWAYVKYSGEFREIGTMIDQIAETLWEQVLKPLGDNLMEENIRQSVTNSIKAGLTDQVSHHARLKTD

[5] = biological target: AEA-DA lipid probe targets in Neuro2a cells (Mus musculus, UniProt Q9DBG6)
Sequence of AEA-DA lipid probe targets in Neuro2a cells (Mus musculus, UniProt Q9DBG6) (Q9DBG6 23-631): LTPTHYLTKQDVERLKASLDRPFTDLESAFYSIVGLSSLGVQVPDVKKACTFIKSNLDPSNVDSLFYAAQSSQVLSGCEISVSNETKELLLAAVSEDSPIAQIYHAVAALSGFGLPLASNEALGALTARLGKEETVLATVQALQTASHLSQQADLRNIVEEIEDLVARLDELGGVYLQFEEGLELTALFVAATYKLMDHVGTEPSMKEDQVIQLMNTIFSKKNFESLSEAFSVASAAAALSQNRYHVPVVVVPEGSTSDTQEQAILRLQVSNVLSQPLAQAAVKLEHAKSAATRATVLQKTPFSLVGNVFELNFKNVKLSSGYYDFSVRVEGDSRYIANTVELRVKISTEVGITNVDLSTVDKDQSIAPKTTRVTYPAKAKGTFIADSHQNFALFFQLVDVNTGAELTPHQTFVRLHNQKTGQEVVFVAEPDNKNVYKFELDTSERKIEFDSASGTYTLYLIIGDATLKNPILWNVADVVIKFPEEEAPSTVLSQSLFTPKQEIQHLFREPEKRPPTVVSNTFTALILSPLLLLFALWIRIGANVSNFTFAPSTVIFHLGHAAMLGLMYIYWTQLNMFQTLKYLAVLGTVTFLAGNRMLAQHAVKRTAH

[6] = biological target: AEA-DA lipid probe targets in Neuro2a cells (Mus musculus, UniProt Q9QUJ7)
Sequence of AEA-DA lipid probe targets in Neuro2a cells (Mus musculus, UniProt Q9QUJ7) (Q9QUJ7 whole entry): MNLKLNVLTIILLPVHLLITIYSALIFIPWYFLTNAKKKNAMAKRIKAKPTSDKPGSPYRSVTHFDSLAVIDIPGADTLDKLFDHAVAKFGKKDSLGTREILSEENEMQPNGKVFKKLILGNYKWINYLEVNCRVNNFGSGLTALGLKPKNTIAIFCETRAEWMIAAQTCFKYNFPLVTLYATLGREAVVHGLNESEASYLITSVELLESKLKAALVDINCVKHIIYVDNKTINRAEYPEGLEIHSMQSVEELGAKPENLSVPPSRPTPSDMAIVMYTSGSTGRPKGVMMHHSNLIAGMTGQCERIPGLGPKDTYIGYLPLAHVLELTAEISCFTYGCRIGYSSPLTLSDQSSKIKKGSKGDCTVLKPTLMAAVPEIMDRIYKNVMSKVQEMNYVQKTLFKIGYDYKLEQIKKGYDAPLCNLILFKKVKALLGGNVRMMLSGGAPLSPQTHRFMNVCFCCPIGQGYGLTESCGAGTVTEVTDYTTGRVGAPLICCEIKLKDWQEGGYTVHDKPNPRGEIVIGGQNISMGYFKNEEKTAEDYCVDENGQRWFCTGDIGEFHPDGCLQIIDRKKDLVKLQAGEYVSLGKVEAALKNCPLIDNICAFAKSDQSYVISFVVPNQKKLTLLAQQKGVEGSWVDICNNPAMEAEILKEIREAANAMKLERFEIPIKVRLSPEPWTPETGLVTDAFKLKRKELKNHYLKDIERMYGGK

[7] = biological target: T3, AEA-DA lipid probe targets in Neuro2a cells (Mus musculus, UniProt Q8C3X8)
T3 sequence (Q8C3X8 1-702): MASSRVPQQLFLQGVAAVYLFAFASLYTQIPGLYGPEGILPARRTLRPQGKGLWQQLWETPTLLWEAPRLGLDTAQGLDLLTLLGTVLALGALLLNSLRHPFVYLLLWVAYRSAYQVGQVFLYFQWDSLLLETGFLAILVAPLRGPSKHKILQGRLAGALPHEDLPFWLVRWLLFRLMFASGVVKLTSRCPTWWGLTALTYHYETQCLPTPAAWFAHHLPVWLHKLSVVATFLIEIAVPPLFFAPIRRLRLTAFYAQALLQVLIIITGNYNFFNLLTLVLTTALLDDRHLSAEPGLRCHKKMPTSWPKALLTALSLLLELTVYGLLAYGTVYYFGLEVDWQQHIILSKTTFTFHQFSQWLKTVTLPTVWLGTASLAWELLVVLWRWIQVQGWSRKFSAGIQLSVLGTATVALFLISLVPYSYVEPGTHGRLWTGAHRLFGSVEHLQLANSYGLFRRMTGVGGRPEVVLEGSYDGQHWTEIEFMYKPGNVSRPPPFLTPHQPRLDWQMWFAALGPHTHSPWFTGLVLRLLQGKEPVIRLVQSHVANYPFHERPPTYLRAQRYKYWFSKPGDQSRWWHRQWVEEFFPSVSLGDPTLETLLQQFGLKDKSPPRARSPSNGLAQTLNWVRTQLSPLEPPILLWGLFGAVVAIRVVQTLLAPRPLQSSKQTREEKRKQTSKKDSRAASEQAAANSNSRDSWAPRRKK

[8] = biological target: AEA-DA lipid probe targets in Neuro2a cells (Mus musculus, UniProt Q91WD5)
Sequence of AEA-DA lipid probe targets in Neuro2a cells (Mus musculus, UniProt Q91WD5) (Q91WD5 34-463): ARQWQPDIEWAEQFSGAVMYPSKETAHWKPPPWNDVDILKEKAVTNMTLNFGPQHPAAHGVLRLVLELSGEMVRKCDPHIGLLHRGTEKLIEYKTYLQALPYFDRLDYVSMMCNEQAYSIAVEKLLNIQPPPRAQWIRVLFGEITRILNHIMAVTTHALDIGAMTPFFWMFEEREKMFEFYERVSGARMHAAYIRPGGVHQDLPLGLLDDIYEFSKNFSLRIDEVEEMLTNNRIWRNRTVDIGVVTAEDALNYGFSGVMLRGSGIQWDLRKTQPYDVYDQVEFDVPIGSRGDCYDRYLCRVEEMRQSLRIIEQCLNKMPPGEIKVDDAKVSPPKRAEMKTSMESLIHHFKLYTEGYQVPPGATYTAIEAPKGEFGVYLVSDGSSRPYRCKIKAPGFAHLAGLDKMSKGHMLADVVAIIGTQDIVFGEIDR

[9] = biological target: AEA-DA lipid probe targets in Neuro2a cells (Mus musculus, UniProt Q8BG32)
Sequence of AEA-DA lipid probe targets in Neuro2a cells (Mus musculus, UniProt Q8BG32) (Q8BG32 whole entry): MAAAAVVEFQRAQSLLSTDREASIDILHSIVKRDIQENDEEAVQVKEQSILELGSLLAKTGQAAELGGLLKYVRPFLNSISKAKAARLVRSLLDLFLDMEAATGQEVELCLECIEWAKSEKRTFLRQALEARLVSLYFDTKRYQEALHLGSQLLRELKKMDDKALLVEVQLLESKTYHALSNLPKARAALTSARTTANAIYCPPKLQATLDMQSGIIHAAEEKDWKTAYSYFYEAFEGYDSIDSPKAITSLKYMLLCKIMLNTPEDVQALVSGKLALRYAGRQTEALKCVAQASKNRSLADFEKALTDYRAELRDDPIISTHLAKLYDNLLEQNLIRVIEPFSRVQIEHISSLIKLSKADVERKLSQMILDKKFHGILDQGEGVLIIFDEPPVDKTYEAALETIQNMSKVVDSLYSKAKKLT

[10] = biological target: T4, AEA-DA lipid probe targets in Neuro2a cells (Mus musculus, UniProt Q9D6K9)
T4 sequence (Q9D6K9 1-414): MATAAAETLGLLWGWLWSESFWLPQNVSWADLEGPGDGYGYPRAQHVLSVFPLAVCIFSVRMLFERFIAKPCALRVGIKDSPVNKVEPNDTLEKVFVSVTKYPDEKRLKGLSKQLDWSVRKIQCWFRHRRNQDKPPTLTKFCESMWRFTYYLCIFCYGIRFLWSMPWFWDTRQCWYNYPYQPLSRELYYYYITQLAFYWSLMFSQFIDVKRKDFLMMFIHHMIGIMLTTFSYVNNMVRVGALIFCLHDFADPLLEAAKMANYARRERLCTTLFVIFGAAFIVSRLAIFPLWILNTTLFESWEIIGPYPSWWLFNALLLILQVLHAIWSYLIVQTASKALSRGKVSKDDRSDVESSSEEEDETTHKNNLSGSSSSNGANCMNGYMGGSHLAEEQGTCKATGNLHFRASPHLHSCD

[11] = biological target: T5, AEA-DA lipid probe targets in Neuro2a cells (Mus musculus, UniProt Q9QY93)
T5 sequence (Q9QY93 1-170): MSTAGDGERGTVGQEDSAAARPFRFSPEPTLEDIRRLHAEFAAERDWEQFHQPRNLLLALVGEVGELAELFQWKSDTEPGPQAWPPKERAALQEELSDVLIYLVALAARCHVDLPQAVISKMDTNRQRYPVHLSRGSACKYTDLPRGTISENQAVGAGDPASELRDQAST

[12] = biological target: AEA-DA lipid probe targets in Neuro2a cells (Mus musculus, UniProt Q91VE6)
Sequence of AEA-DA lipid probe targets in Neuro2a cells (Mus musculus, UniProt Q91VE6) (Q91VE6 whole entry): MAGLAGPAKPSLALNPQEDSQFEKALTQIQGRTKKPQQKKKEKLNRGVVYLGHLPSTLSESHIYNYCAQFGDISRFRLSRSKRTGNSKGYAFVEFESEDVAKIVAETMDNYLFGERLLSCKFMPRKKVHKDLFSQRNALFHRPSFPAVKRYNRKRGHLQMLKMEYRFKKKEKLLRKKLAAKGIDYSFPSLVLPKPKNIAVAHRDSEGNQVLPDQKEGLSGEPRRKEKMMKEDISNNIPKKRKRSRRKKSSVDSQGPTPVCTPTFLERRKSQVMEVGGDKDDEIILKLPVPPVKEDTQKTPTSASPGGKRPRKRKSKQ

[13] = biological target: AEA-DA lipid probe targets in Neuro2a cells (Mus musculus, UniProt Q9Z2I0)
Sequence of AEA-DA lipid probe targets in Neuro2a cells (Mus musculus, UniProt Q9Z2I0) (Q9Z2I0 115-738): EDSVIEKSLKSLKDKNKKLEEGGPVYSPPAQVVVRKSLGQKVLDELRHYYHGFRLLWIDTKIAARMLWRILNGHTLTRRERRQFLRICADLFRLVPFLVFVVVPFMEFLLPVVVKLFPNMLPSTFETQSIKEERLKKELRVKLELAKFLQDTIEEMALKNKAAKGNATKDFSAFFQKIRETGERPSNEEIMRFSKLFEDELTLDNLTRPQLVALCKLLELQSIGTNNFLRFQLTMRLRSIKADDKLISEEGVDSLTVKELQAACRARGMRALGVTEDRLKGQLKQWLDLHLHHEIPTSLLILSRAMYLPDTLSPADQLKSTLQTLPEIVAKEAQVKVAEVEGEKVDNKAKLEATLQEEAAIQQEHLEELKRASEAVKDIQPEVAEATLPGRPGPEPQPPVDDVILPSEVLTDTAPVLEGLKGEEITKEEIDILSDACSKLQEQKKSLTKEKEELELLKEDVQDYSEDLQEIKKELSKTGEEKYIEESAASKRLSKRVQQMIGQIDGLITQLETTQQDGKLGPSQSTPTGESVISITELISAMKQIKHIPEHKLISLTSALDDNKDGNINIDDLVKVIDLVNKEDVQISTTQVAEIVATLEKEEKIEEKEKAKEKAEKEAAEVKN

[14] = biological target: AEA-DA lipid probe targets in Neuro2a cells (Mus musculus, UniProt P62814)
Sequence of AEA-DA lipid probe targets in Neuro2a cells (Mus musculus, UniProt P62814) (P62814 whole entry): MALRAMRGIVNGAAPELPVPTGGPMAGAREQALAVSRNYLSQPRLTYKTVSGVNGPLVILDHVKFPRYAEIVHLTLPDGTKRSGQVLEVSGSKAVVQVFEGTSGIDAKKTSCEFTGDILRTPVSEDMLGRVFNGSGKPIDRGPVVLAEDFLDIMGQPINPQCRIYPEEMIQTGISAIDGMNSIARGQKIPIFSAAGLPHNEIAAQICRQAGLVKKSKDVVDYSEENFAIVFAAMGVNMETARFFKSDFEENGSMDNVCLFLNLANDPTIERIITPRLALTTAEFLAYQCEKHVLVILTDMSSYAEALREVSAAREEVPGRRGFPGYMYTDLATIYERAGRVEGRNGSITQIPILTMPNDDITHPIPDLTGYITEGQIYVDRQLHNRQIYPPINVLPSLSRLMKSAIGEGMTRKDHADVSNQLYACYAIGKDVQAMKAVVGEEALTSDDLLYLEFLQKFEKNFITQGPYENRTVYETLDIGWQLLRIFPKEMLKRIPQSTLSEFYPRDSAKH

## C=CCN(C)CCCCCCOc1ccc(C(=O)c2ccc(Br)cc2)c(F)c1 [Ro 48-8071, reference compound]
[1]; competitor 25 μM
  SILAC ratio, Sccpdh: 1.6
[2]; competitor 25 μM
  SILAC ratio Icmt: 1.6
[3]; competitor 25 μM
  SILAC ratio, Gstm2: 1.3
[4]; competitor 25 μM
  SILAC ratio, Atl2: 1.2
[5]; competitor 25 μM
  SILAC ratio Rpn2: 1.0
[6]; competitor 25 μM
  SILAC ratio Acsl4: 1.1
[7]; competitor 25 μM
  SILAC ratio Lmf2: 1.3
[8]; competitor 25 μM
  SILAC ratio Ndufs2: 1.2
[9]; competitor 25 μM
  SILAC ratio Psmd11: 0.9
[10]; competitor 25 μM
  SILAC ratio, Cers5: 1.3
[11]; competitor 25 μM
  SILAC ratio Dctpp1: 0.8
[12]; competitor 25 μM
  SILAC ratio Mki67ip: 1.0
[13]; competitor 25 μM
  SILAC ratio Letm1: 1.3
[14]; competitor 25 μM
  SILAC ratio Atp6v1b2: 0.6

## CN1CCN(C(=O)c2[nH]c3ccc([N+](=O)[O-])cc3c2-c2ccccc2)CC1 [MJN228, (4-Methylpiperazin-1-yl)(5-nitro-3-phenyl-1H-indol-2-yl)methanone]
[1]; competitor 10 μM
  SILAC ratio, Sccpdh: 1.4
[1]; competitor 25 μM
  SILAC ratio, Sccpdh: 2.1
[1]; competitor 50 μM
  SILAC ratio, Sccpdh: 3.3
[1]; competitor 100 μM
  SILAC ratio, Sccpdh: 5.9
[2]; competitor 10 μM
  SILAC ratio Icmt: 0.9
[2]; competitor 25 μM
  SILAC ratio Icmt: 0.9
[2]; competitor 50 μM
  SILAC ratio Icmt: 0.6
[2]; competitor 100 μM
  SILAC ratio Icmt: 0.5
[3]; competitor 10 μM
  SILAC ratio, Gstm2: 1.6
[3]; competitor 25 μM
  SILAC ratio, Gstm2: 1.6
[3]; competitor 100 μM
  SILAC ratio, Gstm2: 2.2
[4]; competitor 10 μM
  SILAC ratio, Atl2: 1.1
[4]; competitor 25 μM
  SILAC ratio, Atl2: 1.4
[4]; competitor 50 μM
  SILAC ratio, Atl2: 1.6
[5]; competitor 10 μM
  SILAC ratio Rpn2: 1.2
[5]; competitor 25 μM
  SILAC ratio Rpn2: 1.3
[5]; competitor 50 μM
  SILAC ratio Rpn2: 1.4
[5]; competitor 100 μM
  SILAC ratio Rpn2: 1.7
[6]; competitor 10 μM
  SILAC ratio Acsl4: 1.2
[6]; competitor 25 μM
  SILAC ratio Acsl4: 1.4
[6]; competitor 50 μM
  SILAC ratio Acsl4: 1.6
[6]; competitor 100 μM
  SILAC ratio Acsl4: 1.7
[7]; competitor 10 μM
  SILAC ratio Lmf2: 1.5
[7]; competitor 25 μM
  SILAC ratio Lmf2: 1.7
[7]; competitor 50 μM
  SILAC ratio Lmf2: 2.0
[7]; competitor 100 μM
  SILAC ratio Lmf2: 2.5
[8]; competitor 10 μM
  SILAC ratio Ndufs2: 1.3
[8]; competitor 25 μM
  SILAC ratio Ndufs2: 1.3
[8]; competitor 100 μM
  SILAC ratio Ndufs2: 1.1
[9]; competitor 25 μM
  SILAC ratio Psmd11: 1.3
[10]; competitor 10 μM
  SILAC ratio, Cers5: 1.2
[10]; competitor 25 μM
  SILAC ratio, Cers5: 1.8
[10]; competitor 50 μM
  SILAC ratio, Cers5: 2.1
[10]; competitor 100 μM
  SILAC ratio, Cers5: 3.0
[11]; competitor 25 μM
  SILAC ratio Dctpp1: 1.2
[11]; competitor 50 μM
  SILAC ratio Dctpp1: 1.0
[11]; competitor 100 μM
  SILAC ratio Dctpp1: 1.0
[12]; competitor 10 μM
  SILAC ratio Mki67ip: 1.2
[12]; competitor 25 μM
  SILAC ratio Mki67ip: 1.5
[12]; competitor 50 μM
  SILAC ratio Mki67ip: 1.8
[12]; competitor 100 μM
  SILAC ratio Mki67ip: 2.3
[13]; competitor 10 μM
  SILAC ratio Letm1: 1.3
[13]; competitor 25 μM
  SILAC ratio Letm1: 1.5
[13]; competitor 50 μM
  SILAC ratio Letm1: 1.2
[13]; competitor 100 μM
  SILAC ratio Letm1: 1.1
[14]; competitor 10 μM
  SILAC ratio Atp6v1b2: 1.2
[14]; competitor 25 μM
  SILAC ratio Atp6v1b2: 1.1
[14]; competitor 50 μM
  SILAC ratio Atp6v1b2: 0.9

## CCCCC/C=C\C/C=C\C/C=C\C/C=C\CCCC(=O)NCCO [AEA, anandamide, reference compound]
[1]; competitor 200 μM
  SILAC ratio, Sccpdh: 3.4
[2]; competitor 200 μM
  SILAC ratio Icmt: 1.5
[3]; competitor 200 μM
  SILAC ratio, Gstm2: 2.7
[4]; competitor 200 μM
  SILAC ratio, Atl2: 2.0
[5]; competitor 200 μM
  SILAC ratio Rpn2: 1.3
[6]; competitor 200 μM
  SILAC ratio Acsl4: 1.6
[7]; competitor 200 μM
  SILAC ratio Lmf2: 1.9
[8]; competitor 200 μM
  SILAC ratio Ndufs2: 1.3
[9]; competitor 200 μM
  SILAC ratio Psmd11: 1.2
[10]; competitor 200 μM
  SILAC ratio, Cers5: 2.1
[11]; competitor 200 μM
  SILAC ratio Dctpp1: 1.5
[12]; competitor 200 μM
  SILAC ratio Mki67ip: 1.4
[13]; competitor 200 μM
  SILAC ratio Letm1: 0.6
[14]; competitor 200 μM
  SILAC ratio Atp6v1b2: 1.1

## CN1CCN(C(=O)c2c(-c3ccccc3)c3cc([N+](=O)[O-])ccc3n2C)CC1 [KML110, (1-Methyl-5-nitro-3-phenyl-1H-indol-2-yl)(4-methylpiperazin-1-yl)methanone]
[1]; competitor 25 μM
  SILAC ratio, Sccpdh: 2.6
[2]; competitor 25 μM
  SILAC ratio Icmt: 1.0
[4]; competitor 25 μM
  SILAC ratio, Atl2: 1.3
[5]; competitor 25 μM
  SILAC ratio Rpn2: 1.2
[6]; competitor 25 μM
  SILAC ratio Acsl4: 1.3
[7]; competitor 25 μM
  SILAC ratio Lmf2: 1.7
[8]; competitor 25 μM
  SILAC ratio Ndufs2: 1.3
[9]; competitor 25 μM
  SILAC ratio Psmd11: 1.3
[10]; competitor 25 μM
  SILAC ratio, Cers5: 1.6
[11]; competitor 25 μM
  SILAC ratio Dctpp1: 1.6
[12]; competitor 25 μM
  SILAC ratio Mki67ip: 1.5
[13]; competitor 25 μM
  SILAC ratio Letm1: 1.1
[14]; competitor 25 μM
  SILAC ratio Atp6v1b2: 1.2

## O=C(/C=C/c1cccnc1)NCCCCC1CCN(C(=O)c2ccccc2)CC1 [FK-866, reference compound]
[1]; competitor 25 μM
  SILAC ratio, Sccpdh: 7.3
[2]; competitor 25 μM
  SILAC ratio Icmt: 1.3
[3]; competitor 25 μM
  SILAC ratio, Gstm2: 1.5
[4]; competitor 25 μM
  SILAC ratio, Atl2: 1.1
[5]; competitor 25 μM
  SILAC ratio Rpn2: 1.1
[6]; competitor 25 μM
  SILAC ratio Acsl4: 1.3
[7]; competitor 25 μM
  SILAC ratio Lmf2: 1.2
[8]; competitor 25 μM
  SILAC ratio Ndufs2: 1.7
[9]; competitor 25 μM
  SILAC ratio Psmd11: 1.3
[10]; competitor 25 μM
  SILAC ratio, Cers5: 1.1
[11]; competitor 25 μM
  SILAC ratio Dctpp1: 1.4
[12]; competitor 25 μM
  SILAC ratio Mki67ip: 1.0
[13]; competitor 25 μM
  SILAC ratio Letm1: 1.5
[14]; competitor 25 μM
  SILAC ratio Atp6v1b2: 1.6
